Here are results for 7 compounds from patent publication US8642759B2, “Benzene sulfonamide thiazole and oxazole compounds” (GlaxoSmithKline LLC, priority 2008, dated 2014).

Assay [1] concerns A375P F11s. Description: Dose dependent tumor inhibition, A375P F11s subcutaneous xenograft. The format is in vivo, athymic mice. More on the design: key: −: indicates no response; +: indicates growth delay (1-2× doubling); ++: indicates growth delay (>2× doubling); +++: indicates stable disease; ++++: indicates partial regression; +++++: indicates complete regression. Conditions: oral, 14-day period. The method, then:
A375P F11s were cultured in RPMI 1640 medium supplemented with 10% fetal bovine serum, 1% Penicillin-streptomycin and 1% sodium pyruvate. Tumor cells (2×10^6 A375P F11s) were implanted subcutaneously into the right flank of athymic mice on Day 1. To facilitate their growth, A375P F11s cells were suspended in Matrigel diluted 1:1 in phosphate-buffered saline before implantation. When tumors had reached approximately 200 mm^3 in volume (Day 19-22), tumor-bearing mice were randomized into study groups (n=7 or 8). Animals were dosed orally once or twice daily for a 14-day period. […] Tumor growth was measured twice a week using calipers for the duration of the study. Tumor volumes were calculated as a product of (length×width×width)/2 and median values were used to compare groups. Complete regressions (CR) were defined as three consecutive tumor measurements of ≦13.5 mm^3. Partial regressions were defined as three consecutive measurements of ≦50% of starting tumor volume. Tumor growth delay was defined as the difference in time taken for treated and control groups to reach 1000 mm^3 (T-C1000).

Assay [2] has as its system cancer cell lines encoding B-Raf V600E mutation. Description: 3 day proliferation assay, panel of 22 cancer cell lines encoding B-Raf V600E. Type of assay: cell-based. Conditions: count of cell lines of the panel of 22.
Assay [3] addresses T1, His6-tagged BRAFV600E full-length (amino acids 2-766) (Homo sapiens, UniProt P15056, V600E).
T1 construct: BRAFV600E full-length (amino acids 2-766); His6; made in house
Description: biochemical. The format is biochemical. The method, then: Compounds of the present invention were tested for B-Raf protein serine kinase inhibitory activity in a B-Raf Accelerated MEK ATPase assay (BRAMA). […] The BRAMA assay is a high sensitivity assay which measures an intrinsic MEK-mediated ATP hydrolysis uncoupled from downstream ERK phosphorylation by coupling the formation of ADP to NADH oxidation through the enzymes pyruvate kinase and lactate dehydrogenase. When ADP production is initiated by addition of catalytic amounts of an activated Raf enzyme and non-phosphorylated MEK, one observes robust ADP production concomitant with Raf-mediated phosphorylation of MEK. The method is disclosed in: C. Rominger, M. Schaber, E. May. Assay for B-Raf Activity Based on Intrinsic MEK ATPase Activity.

Assay [4] deals with Human melanoma cancer cells (SK-MEL-28). The assay can be described thus: Cell growth inhibition assay (CellTiter-Glo), SK-MEL-28. The conditions noted are these: SK-MEL-28, 72 h, 3 days incubation. The format is cell-based. For orientation: ATP-based viability assays read luminescence as a measure of living cells.
Assay [5] relates to Human colon tumor cells (Colo205). Description: Cell growth inhibition assay (CellTiter-Glo), Colo205. The format is cell-based. Conditions: COLO 205, 72 h, 3 days incubation. The method, then:
Human colon tumor cells (Colo205) were cultured in RPMI (Mediatech 50-020-PB) containing 10% FBS and 1% penicillin-streptomycin.
The next day, compounds were diluted as follow: For 96-well assays, 13.5 μL of compound in DMSO were diluted using nine (9) serial 1:3 dilutions of 4.5 μL in 9 μL of DMSO. Medium (270 μL/well of RPMI with 10% FBS and 1% penicillin-streptomycin) was added to the plates. Aliquots (7 μL) were added to cells in the final assay giving a final DMSO concentration of 0.2%. For 384-well assays, 15 μL of compound in DMSO were diluted using nine (9) serial 1:3 dilutions of 5 μL in 10 μL of DMSO, followed by a further dilution of 5 μL of compound with 95 μL of medium, of which 2 μL were added to cells in the final assay giving a final DMSO concentration of 0.2%. Cells were incubated at 37° C., 5% CO2 for 3 days.
Total ATP was measured (as a surrogate estimate of cell number) using CellTiter-Glo® reagent (Promega G7571). Briefly, plates were removed from the incubator and allowed to equilibrate to room temperature for 30 minutes. CellTiter-Glo® (25 μL or 55 μL for 384-well or 96-well assays, respectively) reagent was added to each well and plates were shaken on an orbital plate shaker for 2 minutes. Plates were incubated without shaking for a further 30 minutes and read on an LJL Analyst GT reader in luminometer mode with an integration time of 0.5 seconds per well. Percent inhibition of cell growth was calculated relative to DMSO vehicle-treated control wells.

Setting [6] is: Table 1a, highest pIC50 for the one or more runs.
[7] abbreviates: Table 3a, read-out: Activity in SK-MEL-28 Tumor Cells.
The mark [8] stands for this setting: Table 3b (later runs), average for the one or more runs, read-out: IC50 for SK-MEL-28.
The mark [9] stands for this setting: Table 1a, highest pIC50 for the one or more runs, read-out: B-Raf Activity.
Setting [10] is: Table 1b (later runs), average pIC50 for the one or more runs, read-out: B-Raf plC50.
Setting [11] is: Table 2a, read-out: Activity in Colo205 Tumor Cells.
Setting [12] is: Table 2b (later runs), average for the one or more runs, read-out: IC50 for Colo205.

Where two headings read alike, the source gives them in different places.

T1 sequence (P15056 2-766 V600E): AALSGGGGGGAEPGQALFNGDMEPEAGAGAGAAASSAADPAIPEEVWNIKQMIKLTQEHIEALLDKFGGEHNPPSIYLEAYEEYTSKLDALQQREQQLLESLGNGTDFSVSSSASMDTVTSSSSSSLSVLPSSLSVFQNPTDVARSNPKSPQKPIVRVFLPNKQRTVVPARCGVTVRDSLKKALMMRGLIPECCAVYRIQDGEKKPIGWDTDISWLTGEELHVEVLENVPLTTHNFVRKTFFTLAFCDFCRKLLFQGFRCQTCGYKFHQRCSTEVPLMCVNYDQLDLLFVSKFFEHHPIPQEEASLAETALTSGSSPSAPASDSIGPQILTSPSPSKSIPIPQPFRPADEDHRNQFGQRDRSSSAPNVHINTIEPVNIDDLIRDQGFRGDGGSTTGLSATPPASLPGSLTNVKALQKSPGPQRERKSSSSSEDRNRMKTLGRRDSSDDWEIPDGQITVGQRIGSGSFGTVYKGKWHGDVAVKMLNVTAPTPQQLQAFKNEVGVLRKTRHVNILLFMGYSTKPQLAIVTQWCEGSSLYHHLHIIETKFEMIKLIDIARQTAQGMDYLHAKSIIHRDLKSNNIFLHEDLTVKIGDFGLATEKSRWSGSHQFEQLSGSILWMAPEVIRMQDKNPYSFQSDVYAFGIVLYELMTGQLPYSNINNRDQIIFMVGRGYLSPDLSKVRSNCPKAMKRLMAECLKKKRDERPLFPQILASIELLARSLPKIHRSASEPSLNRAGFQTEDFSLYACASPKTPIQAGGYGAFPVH

For `CC(C)(C)c1nc(-c2cccc(NS(=O)(=O)c3c(F)cccc3F)c2F)c(-c2ccnc(N)n2)s1` [Example 58a, N-{3-[5-(2-Amino-4-pyrimidinyl)-2-(1,1-dimethylethyl)-1,3-thiazol-4-yl]-2-fluorophenyl}-2,6-difluorobenzenesulfonamide], the Response entry in assay [1] (1 mg/kg qd) was “+”; in assay [1] (10 mg/kg qd), “++ (+)”; in assay [1] (100 mg/kg bid), “++++ (+)”; in assay [1] (100 mg/kg qd), “++++ (+)”; in assay [1] (300 mg/kg bid), “++++ (+)”; in assay [1] (300 mg/kg qd), “++++ (+)”. Further, in assay [2], the “cancer cell lines encoding B-Raf V600E not sensitive (gIC50>1000M)” value is 4 out of 22. Moreover, in assay [2], the “cancer cell lines encoding B-Raf V600E with intermediate response (gIC50≧100 nM and <1000 nM)” value is 2 out of 22.
`CC(C)c1nc(-c2ccc(F)c(NS(=O)(=O)c3c(F)cccc3F)c2)c(-c2ccnc(NCCN3CCOCC3)n2)s1` [Example 165]: in assay [3] (setting [6]), the “B-Raf Activity” value is listed as “++ (indicates at least one pIC50 measurement greater than 6 against B-Raf but no measurement greater than pIC50 of 7)”.
With `CC(C)c1nc(-c2ccc(F)c(NS(=O)(=O)c3c(F)cccc3F)c2)c(-c2ccnc(NCCOCCO)n2)s1` [Example 166], in assay [3] (setting [6]), the “B-Raf Activity” value is “++ (indicates at least one pIC50 measurement greater than 6 against B-Raf but no measurement greater than pIC50 of 7)”.
Turning to `CC(C)c1nc(-c2ccc(F)c(NS(=O)(=O)c3c(F)cccc3F)c2)c(-c2ccnc(NCCCCN(C)C)n2)s1` [Example 167], the “B-Raf Activity” value in assay [3] (setting [6]) is “++ (indicates at least one pIC50 measurement greater than 6 against B-Raf but no measurement greater than pIC50 of 7)”.
Regarding `COCCCNc1nccc(-c2sc(C(C)C)nc2-c2ccc(F)c(NS(=O)(=O)c3c(F)cccc3F)c2)n1` [Example 168], the “B-Raf Activity” value in assay [3] (setting [6]) is “++ (indicates at least one pIC50 measurement greater than 6 against B-Raf but no measurement greater than pIC50 of 7)”.
`CC(C)c1nc(-c2cccc(NS(=O)(=O)c3cc(F)ccc3F)c2F)c(-c2ccnc(NCCCNS(C)(=O)=O)n2)s1` [Example 195]: the IC50 was less than 100 nM in assay [4] (setting [7]); less than 100 nM in assay [4] (setting [8]); less than 100 nM in assay [3] (setting [9]); no more than 3.16 nM in assay [3] (setting [10]); less than 100 nM in assay [5] (setting [11]); less than 100 nM in assay [5] (setting [12]).
For `CC(C)c1nc(-c2cccc(NS(=O)(=O)c3cc(F)ccc3F)c2F)c(-c2ccnc(NCCCNC(=O)CO)n2)s1` [Example 196], the IC50 in assay [4] (setting [7]) is less than 100 nM; in assay [4] (setting [8]) it was less than 100 nM; in assay [3] (setting [9]), less than 100 nM; in assay [3] (setting [10]), no more than 3.16 nM; in assay [5] (setting [11]) it was less than 100 nM; in assay [5] (setting [12]) it was less than 100 nM.
